In article PMC12498411, “Antidepressant-like Properties of a Selenium-Containing Pyridinium Salt Explored through In Vitro, In Vivo, and In Silico Approaches” (ACS Chemical Neuroscience, 2025):
Read-outs that look alike come from different tables or passages of the source.

Assays:
MAO-A = target: T1, MAO-A (Mus musculus, UniProt Q64133); experiment: Cerebral MAO-A activity, mitochondria-enriched mouse brain fraction (kynuramine, fluorimetric); format: biochemical; details: for Concentrations with significant inhibition of MAO-A activity: tested 25–200 μM, Dunnett vs control
T1 construct: Mitochondria-enriched brain preparations were obtained in accordance with established methodology outlined in literature; from tissue; host or cells: mouse brain, mitochondria-enriched fraction
T1 sequence (Q64133 1-526): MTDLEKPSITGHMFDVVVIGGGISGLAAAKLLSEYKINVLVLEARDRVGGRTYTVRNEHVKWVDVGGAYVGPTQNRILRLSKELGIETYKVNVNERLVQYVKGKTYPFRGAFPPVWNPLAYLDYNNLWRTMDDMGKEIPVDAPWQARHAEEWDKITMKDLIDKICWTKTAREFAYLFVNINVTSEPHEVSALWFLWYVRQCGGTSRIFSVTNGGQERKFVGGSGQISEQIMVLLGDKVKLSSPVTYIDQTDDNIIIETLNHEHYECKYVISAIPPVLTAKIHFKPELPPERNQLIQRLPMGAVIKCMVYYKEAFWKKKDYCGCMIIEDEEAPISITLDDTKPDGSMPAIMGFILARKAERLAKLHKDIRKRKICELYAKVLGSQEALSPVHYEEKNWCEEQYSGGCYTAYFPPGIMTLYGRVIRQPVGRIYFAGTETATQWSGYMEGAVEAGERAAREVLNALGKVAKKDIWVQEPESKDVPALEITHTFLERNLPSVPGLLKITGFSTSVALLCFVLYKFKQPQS
Description: (§1) Mitochondria-enriched brain preparations were obtained in accordance with established methodology outlined in literature. The homogenate was prepared using the mouse brain tissue and a homogenization buffer (Na2PO4/KH2PO4/sucrose) at a ratio of 1:4 (w/v). The homogenate was centrifuged at 900g at 4 °C for 5 min. The resulting supernatant was separated and subjected to centrifugation at 12,500g for 15 min. The resulting pellet was resuspended in the homogenization buffer and subjected to a further round of centrifugation under identical conditions. Finally, the mitochondrial pellet obtained was reconstituted in an assay buffer solution (Na2PO4/KH2PO4/KCl). Protein concentration was estimated using the Bradford method and standardized as 1 mg/mL for the experiments.
(§2) MAO activity was assessed following the method outlined by Krajl, with some modifications by Matsumoto. Briefly, a 100 μL aliquot of the mitochondria-rich fraction was incubated at 37 °C for 5 min with specific MAO inhibitors: clorgyline (250 nM, a MAO-A inhibitor), or pargyline (250 nM, a MAO-B inhibitor). Then, 10 μL of each compound was introduced at varying concentrations (25–200 μM). Water (10 μL) was used in the control tubes. Afterward, the substrate, 20 μL of kynuramine dihydrobromide, was added to achieve a final concentration of 90 μM for MAO-A and 60 μM for MAO-B. The samples were incubated at 37 °C for 30 min. The reaction was halted by the addition of 300 μL of 10% trichloroacetic acid (TCA). After centrifuging at 16,000g for 15 min, an aliquot of 800 μL of the supernatant was mixed with 1 mL of 1 M sodium hydroxide (NaOH). The samples were measured using a fluorimeter with excitation at 315 nm and emission at 380 nm.

MAO-B = target: T2, MAO-B (Mus musculus, UniProt Q8BW75); experiment: Cerebral MAO-B activity, mitochondria-enriched mouse brain fraction (kynuramine, fluorimetric); format: biochemical
T2 construct: Mitochondria-enriched brain preparations were obtained in accordance with established methodology outlined in literature; from tissue; host or cells: mouse brain, mitochondria-enriched fraction
T2 sequence (Q8BW75 1-520): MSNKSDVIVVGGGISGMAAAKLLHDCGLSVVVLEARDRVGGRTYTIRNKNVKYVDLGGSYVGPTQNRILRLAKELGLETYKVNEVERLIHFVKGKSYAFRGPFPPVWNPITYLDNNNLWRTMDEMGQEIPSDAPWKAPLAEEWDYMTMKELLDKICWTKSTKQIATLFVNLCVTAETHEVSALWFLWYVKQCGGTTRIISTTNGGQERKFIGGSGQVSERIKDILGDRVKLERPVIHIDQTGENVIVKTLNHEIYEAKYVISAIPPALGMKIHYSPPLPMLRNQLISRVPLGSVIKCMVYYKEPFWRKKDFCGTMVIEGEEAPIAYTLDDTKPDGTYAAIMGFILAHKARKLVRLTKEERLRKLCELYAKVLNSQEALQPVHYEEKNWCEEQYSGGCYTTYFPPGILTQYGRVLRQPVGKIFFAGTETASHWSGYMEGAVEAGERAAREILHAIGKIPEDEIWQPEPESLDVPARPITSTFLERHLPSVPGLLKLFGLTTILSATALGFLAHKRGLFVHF
Description: as §1, §2

male Swiss mice [1] = experiment: Tail suspension test (TST); format: in vivo, mouse
Description: A behavioral screening was conducted using the three salts to determine their potential antidepressant-like actions (n = 7–9 mice/group).
(§3) A dosage of 5 mg/kg (intragastric route, i.g., by gavage) was administered to all groups receiving the salts. […] The TST was conducted 30 min following drug administration, with the OFT being performed 4 min prior to the TST.
(§4) Following the selection of the most promising salt during screening (Compound 3B), an analysis of the compound’s time-response curve was conducted in the mouse TST. For this purpose, the animals were divided into five groups: (I) control (water; i.g.), (II) the group receiving compound 3B 15 min prior to TST, (III) the group receiving compound 3B 30 min before TST, (IV) the group receiving compound 3B 60 min before TST, and (V) the group receiving compound 3B 120 min before TST. The dosage of salt was standardized at 5 mg/kg (i.g). OFT was conducted 4 min prior to the TST.
(§5) After choosing a suitable preadministration time, the dose–response curve of the compound at this fixed time was analyzed. The animals were categorized into […]: I) a control group (administered water; i.g.) and groups II, III, IV and V) receiving compound 3B at doses of 0.5 mg/kg, 1 mg/kg, 2.5 mg/kg, and 5 mg/kg (i.g.), respectively. […] Thirty minutes postadministration, the animals underwent the TST. Four minutes prior to the TST, they underwent the OFT.
This test aims to assess depressive-like behavior and antidepressant-like action of therapies by measuring immobility. […] The test was conducted using a mouse suspension box made of wood, measuring 50 cm × 21 cm × 21 cm, designed to prevent any visual or physical interaction among the animals. A suspension bar was positioned atop the box, and the mouse’s tail was affixed to the bar using adhesive tape. The test duration was 6 min, during which the animal’s latency to the first immobility episode and the total duration of immobility (sec) were assessed.

male Swiss mice [2] = experiment: Open field test (OFT) before the TST; format: in vivo, mouse
Description: as §3, §4, §5
The aim of this behavioral test is to assess the locomotion and exploration behavior of the animals using an open field apparatus measuring 30 cm × 30 cm × 15 cm, constructed from plywood with a floor divided into nine quadrants, facilitating free movement for the animals. During the OFT, the animals were positioned in the center of the apparatus and subjected to a 5 min testing period, following the protocol outlined in literature. The number of quadrant crossings and rearings was recorded and quantified during testing phase.

[3] = salts 5 mg/kg i.g., fluoxetine 20 mg/kg i.p., 30 min before test

SMILES	IC50 (MAO-A) [µM]	Concentrations with significant inhibition of MAO-A activity (MAO-A)	IC50 (MAO-B) [µM]	IC50 (MAO-A; mouse brain mitochondria-rich fraction, 25–200 μM, kynuramine 90 μM, read-out: IC50 for MAO-A) [µM]	Minimum effective dose for antidepressant-like action (male Swiss mice [1]; TST, i.g., 30 min) [mg/kg]	TST latency time to first immobility episode, screening (male Swiss mice [1]; [3])	TST total immobility time, screening (male Swiss mice [1]; [3])	Cohen-D effect size in TST (male Swiss mice [1]; screening, 5 mg/kg i.g., 30 min)	OFT locomotor and exploratory activities, time-response experiment (male Swiss mice [2]; 5 mg/kg i.g., 15–120 min)	OFT number of crossings, dose–response experiment (male Swiss mice [2]; 0.5–5 mg/kg i.g.)	OFT number of rearings, dose–response experiment (male Swiss mice [2]; 3B 0.5–5 mg/kg i.g., fluoxetine 20 mg/kg i.p.)	IC50 (MAO-B; mouse brain mitochondria-rich fraction, 25–200 μM, kynuramine 60 μM, read-out: IC50 for MAO-B) [µM]	Concentrations with significant inhibition of MAO-B activity (MAO-B; tested 25–200 μM, Dunnett vs control) [µM]
O=C(C[n+]1ccccc1C[Se]c1ccccc1)c1ccccc1.[Br-] [Compound 3A, 1-(2-oxo-2-phenylethyl)-2-((phenylselanyl)methyl)pyridin-1-ium bromide]	238	≥ 50 µM	129										
Cc1ccc(C(=O)C[n+]2ccccc2C[Se]c2ccccc2)cc1 [Compound 3B, 1-(2-oxo-2-(p-tolyl)ethyl)-2-((phenylselanyl)methyl)pyridin-1-ium bromide]		all concentrations tested		73.9	1	significantly increased latency time	shorter total immobility times	> 1.77	did not affect the locomotor and exploratory activities	no changes were observed	did not impact on the exploratory behavior profile	91.1	≥ 50
